Measured values reported in patent US20130072430A1, “METHODS FOR TREATMENT OR PROPHYLAXIS OF KIDNEY OR LIVER DYSFUNCTION” (NPS PHARMACEUTICALS, INC., priority 2010, published 2013).

Test system: Human patients with short bowel syndrome
Test: Example 1: kidney diagnostic biomarkers (urea nitrogen, creatinine, GFR) in short bowel syndrome patients, every four weeks for 24 weeks
Format: in vivo
Parameters: CREATININE (RATE BLANKED) Change from Baseline, Median / GFR, Median / GFR Change from Baseline, Median / UREA NITROGEN, Median / UREA NITROGEN Change from Baseline, Median: unit not given here
Conditions: for CREATININE (RATE BLANKED), Median: unit assumed
Method: Human patients with short bowel syndrome were divided into three groups: a control group (16 total individuals) to receive placebo, an experimental group (35 total individuals) to receive teduglutide at 0.05 mg/kg/day throughout the study, and an experimental group (32 total individuals) to receive teduglutide at 0.1 mg/kg/day throughout the study. Patients were treated by subcutaneous injection of placebo or the appropriate dose of teduglutide. As individuals with short bowel syndrome are likely to experience associated liver and kidney disease, known biomarkers of liver and kidney function were monitored every four weeks, for 24 weeks. The liver biomarkers tested included total bilirubin, ALT and AST and ALP. The kidney biomarkers tested included urea nitrogen, creatinine and GFR. Before administration of placebo or teduglutide, diagnostic biomarker levels were tested to establish a baseline for each individual.
To visualize the effect of GLP-2 on the levels of the diagnostic biomarkers, the average change from baseline was calculated for the placebo and teduglutide treated groups for each visit after a baseline was established. The average change from baseline of each group is depicted in FIGS. […]. The numerical figures for each diaanostic biomarker at each time point are depicted in Table 1.
The raw data for this sorting is reproduced in Table 2 below.

## CC[C@H](C)[C@H](NC(=O)[C@H](Cc1ccccc1)NC(=O)[C@H](CC(=O)O)NC(=O)[C@H](CCCNC(=N)N)NC(=O)[C@H](C)NC(=O)[C@H](C)NC(=O)[C@H](CC(C)C)NC(=O)[C@H](CC(N)=O)NC(=O)[C@H](CC(=O)O)NC(=O)[C@H](CC(C)C)NC(=O)[C@@H](NC(=O)[C@@H](NC(=O)[C@H](CC(N)=O)NC(=O)[C@H](CCSC)NC(=O)[C@H](CCC(=O)O)NC(=O)[C@H](CC(=O)O)NC(=O)[C@H](CO)NC(=O)[C@H](Cc1ccccc1)NC(=O)[C@H](CO)NC(=O)CNC(=O)[C@H](CC(=O)O)NC(=O)CNC(=O)[C@@H](N)Cc1c[nH]cn1)[C@@H](C)O)[C@@H](C)CC)C(=O)N[C@@H](CC(N)=O)C(=O)N[C@@H](Cc1c[nH]c2ccccc12)C(=O)N[C@@H](CC(C)C)C(=O)N[C@H](C(=O)N[C@@H](CCC(N)=O)C(=O)N[C@H](C(=O)N[C@@H](CCCCN)C(=O)N[C@H](C(=O)N[C@H](C(=O)N[C@@H](CC(=O)O)C(=O)O)[C@@H](C)O)[C@@H](C)CC)[C@@H](C)O)[C@@H](C)CC [teduglutide]
0.05 mg/kg/day, DW4
  CREATININE (RATE BLANKED) Change from Baseline, Mean (SD): 1.2 (12.01)
  CREATININE (RATE BLANKED) Change from Baseline, Median: 1.5
  CREATININE (RATE BLANKED), Mean (SD): 84.8 (30.01)
  GFR Change from Baseline, Mean (SD): −1.4 (12.80)
  GFR Change from Baseline, Median: −0.6
  GFR, Mean (SD): 86.1 (36.99)
  GFR, Median: 77.0
  UREA NITROGEN Change from Baseline, Mean (SD): −0.4 (2.16)
  UREA NITROGEN Change from Baseline, Median: −0.4
  UREA NITROGEN, Mean (SD): 5.3 (2.09)
  UREA NITROGEN, Median: 4.9
  CREATININE (RATE BLANKED), Median: 80 µmol/L
0.05 mg/kg/day, DW8
  CREATININE (RATE BLANKED) Change from Baseline, Mean (SD): −1.1 (15.51)
  CREATININE (RATE BLANKED) Change from Baseline, Median: 0.0
  CREATININE (RATE BLANKED), Mean (SD): 81.9 (27.34)
  GFR Change from Baseline, Mean (SD): −0.1 (19.13)
  GFR Change from Baseline, Median: 1.1
  GFR, Mean (SD): 89.1 (39.16)
  GFR, Median: 81.6
  UREA NITROGEN Change from Baseline, Mean (SD): −0.4 (2.02)
  UREA NITROGEN Change from Baseline, Median: −0.3
  UREA NITROGEN, Mean (SD): 5.3 (1.58)
  UREA NITROGEN, Median: 5.2
  CREATININE (RATE BLANKED), Median: 71 µmol/L
0.05 mg/kg/day, DW12
  CREATININE (RATE BLANKED) Change from Baseline, Mean (SD): 1.8 (16.71)
  CREATININE (RATE BLANKED) Change from Baseline, Median: 8.0
  CREATININE (RATE BLANKED), Mean (SD): 86.8 (29.41)
  GFR Change from Baseline, Mean (SD): −3.1 (12.18)
  GFR Change from Baseline, Median: −5.0
  GFR, Mean (SD): 85.7 (39.48)
  GFR, Median: 76.5
  UREA NITROGEN Change from Baseline, Mean (SD): −0.8 (1.86)
  UREA NITROGEN Change from Baseline, Median: −0.5
  UREA NITROGEN, Mean (SD): 4.8 (1.69)
  UREA NITROGEN, Median: 4.4
  CREATININE (RATE BLANKED), Median: 80 µmol/L
0.05 mg/kg/day, DW16
  CREATININE (RATE BLANKED) Change from Baseline, Mean (SD): −1.6 (13.06)
  CREATININE (RATE BLANKED) Change from Baseline, Median: 0.0
  CREATININE (RATE BLANKED), Mean (SD): 82.1 (29.95)
  GFR Change from Baseline, Mean (SD): 0.8 (12.08)
  GFR Change from Baseline, Median: 0.9
  GFR, Mean (SD): 89.8 (38.02)
  GFR, Median: 84.1
  UREA NITROGEN Change from Baseline, Mean (SD): −0.5 (2.13)
  UREA NITROGEN Change from Baseline, Median: −0.3
  UREA NITROGEN, Mean (SD): 5.0 (1.73)
  UREA NITROGEN, Median: 4.4
  CREATININE (RATE BLANKED), Median: 79 µmol/L
0.05 mg/kg/day, DW20
  CREATININE (RATE BLANKED) Change from Baseline, Mean (SD): 0.7 (13.11)
  CREATININE (RATE BLANKED) Change from Baseline, Median: 0.0
  CREATININE (RATE BLANKED), Mean (SD): 85.6 (28.77)
  GFR Change from Baseline, Mean (SD): −2.0 (16.60)
  GFR Change from Baseline, Median: 0.9
  GFR, Mean (SD): 83.2 (32.77)
  GFR, Median: 74.0
  UREA NITROGEN Change from Baseline, Mean (SD): −0.6 (1.94)
  UREA NITROGEN Change from Baseline, Median: −0.3
  UREA NITROGEN, Mean (SD): 5.0 (1.80)
  UREA NITROGEN, Median: 5.2
  CREATININE (RATE BLANKED), Median: 77.5 µmol/L
0.05 mg/kg/day, DW24
  CREATININE (RATE BLANKED) Change from Baseline, Mean (SD): −2.9 (14.03)
  CREATININE (RATE BLANKED) Change from Baseline, Median: −0.5
  CREATININE (RATE BLANKED), Mean (SD): 82.8 (31.57)
  GFR Change from Baseline, Mean (SD): 3.7 (12.81)
  GFR Change from Baseline, Median: 1.7
  GFR, Mean (SD): 89.7 (41.28)
  GFR, Median: 78.1
  UREA NITROGEN Change from Baseline, Mean (SD): −0.6 (2.02)
  UREA NITROGEN Change from Baseline, Median: −0.7
  UREA NITROGEN, Mean (SD): 5.0 (1.88)
  UREA NITROGEN, Median: 4.9
  CREATININE (RATE BLANKED), Median: 80 µmol/L
0.10 mg/kg/day, DW4
  CREATININE (RATE BLANKED) Change from Baseline, Mean (SD): −1.8 (10.49)
  CREATININE (RATE BLANKED) Change from Baseline, Median: −0.5
  CREATININE (RATE BLANKED), Mean (SD): 81.0 (21.62)
  GFR Change from Baseline, Mean (SD): 3.6 (11.81)
  GFR Change from Baseline, Median: 3.1
  GFR, Mean (SD): 80.3 (25.98)
  GFR, Median: 75.6
  UREA NITROGEN Change from Baseline, Mean (SD): 0.3 (1.22)
  UREA NITROGEN Change from Baseline, Median: 0.2
  UREA NITROGEN, Mean (SD): 6.4 (2.19)
  UREA NITROGEN, Median: 6.3
  CREATININE (RATE BLANKED), Median: 83 µmol/L
0.10 mg/kg/day, DW8
  CREATININE (RATE BLANKED) Change from Baseline, Mean (SD): 1.2 (10.40)
  CREATININE (RATE BLANKED) Change from Baseline, Median: 0.0
  CREATININE (RATE BLANKED), Mean (SD): 84.2 (21.41)
  GFR Change from Baseline, Mean (SD): 0.6 (10.87)
  GFR Change from Baseline, Median: 0.2
  GFR, Mean (SD): 77.9 (25.63)
  GFR, Median: 76.9
  UREA NITROGEN Change from Baseline, Mean (SD): 0.2 (1.20)
  UREA NITROGEN Change from Baseline, Median: 0.1
  UREA NITROGEN, Mean (SD): 6.4 (2.00)
  UREA NITROGEN, Median: 6.4
  CREATININE (RATE BLANKED), Median: 86 µmol/L
0.10 mg/kg/day, DW12
  CREATININE (RATE BLANKED) Change from Baseline, Mean (SD): 2.8 (12.77)
  CREATININE (RATE BLANKED) Change from Baseline, Median: 6.5
  CREATININE (RATE BLANKED), Mean (SD): 86.4 (25.37)
  GFR Change from Baseline, Mean (SD): 0.2 (15.54)
  GFR Change from Baseline, Median: −0.5
  GFR, Mean (SD): 77.3 (25.57)
  GFR, Median: 68.7
  UREA NITROGEN Change from Baseline, Mean (SD): 0.1 (1.47)
  UREA NITROGEN Change from Baseline, Median: 0.0
  UREA NITROGEN, Mean (SD): 6.3 (2.08)
  UREA NITROGEN, Median: 5.9
  CREATININE (RATE BLANKED), Median: 84.5 µmol/L
0.10 mg/kg/day, DW16
  CREATININE (RATE BLANKED) Change from Baseline, Mean (SD): 0.6 (11.86)
  CREATININE (RATE BLANKED) Change from Baseline, Median: 0.0
  CREATININE (RATE BLANKED), Mean (SD): 84.2 (21.85)
  GFR Change from Baseline, Mean (SD): 1.1 (13.73)
  GFR Change from Baseline, Median: 1.1
  GFR, Mean (SD): 78.3 (23.12)
  GFR, Median: 77.5
  UREA NITROGEN Change from Baseline, Mean (SD): −0.2 (1.47)
  UREA NITROGEN Change from Baseline, Median: 0.0
  UREA NITROGEN, Mean (SD): 6.0 (1.86)
  UREA NITROGEN, Median: 6.1
  CREATININE (RATE BLANKED), Median: 87.5 µmol/L
0.10 mg/kg/day, DW20
  CREATININE (RATE BLANKED) Change from Baseline, Mean (SD): 2.6 (12.05)
  CREATININE (RATE BLANKED) Change from Baseline, Median: 0.0
  CREATININE (RATE BLANKED), Mean (SD): 86.6 (20.44)
  GFR Change from Baseline, Mean (SD): −0.6 (16.16)
  GFR Change from Baseline, Median: 1.5
  GFR, Mean (SD): 77.3 (26.45)
